In patent US20260374739A1, “SMALL MOLECULAR WEIGHT CHEMICAL COMPOUND TO ANTAGONIZE EPH-EPHRIN TETRAMERIZATION AND INHIBIT BIDIRECTIONAL SIGNALING” (THE BOARD OF REGENTS OF THE UNIVERSITY OF TEXAS SYSTEM, priority 2022, published 2026):
Several values for one entry are separate records, joined by “and”; a condition that tells them apart may be missing. Equal values may be shown once. Entries after “also recorded” stand apart in the source; their conditions may differ. Read-outs that look alike come from different tables or passages of the source.

How the values were obtained:
EphrinB2-EphB2 = target: T1, EphrinB2-EphB2 (Homo sapiens, UniProt P29323); experiment: Octet 80 sec association/500 sec dissociation, immobilized human EphrinB2-Fc binding to soluble human EphB2-His; details: for EphB2 Inhibition Percent, Inhibition of Association-Dissociation: at 3.2 μM and 580 seconds; for inhibition: highest dose, typically 3.2 μM
T1 construct: soluble human EphB1-His, EphB2-His, and EphB4-His ectodomains; commercially available human EphrinB1-Fc (EB1), EphrinB2-Fc (EB2), and EphrinB3-Fc (EB3) ectodomain proteins; purchased
T1 sequence (P29323 19-543 limits assumed): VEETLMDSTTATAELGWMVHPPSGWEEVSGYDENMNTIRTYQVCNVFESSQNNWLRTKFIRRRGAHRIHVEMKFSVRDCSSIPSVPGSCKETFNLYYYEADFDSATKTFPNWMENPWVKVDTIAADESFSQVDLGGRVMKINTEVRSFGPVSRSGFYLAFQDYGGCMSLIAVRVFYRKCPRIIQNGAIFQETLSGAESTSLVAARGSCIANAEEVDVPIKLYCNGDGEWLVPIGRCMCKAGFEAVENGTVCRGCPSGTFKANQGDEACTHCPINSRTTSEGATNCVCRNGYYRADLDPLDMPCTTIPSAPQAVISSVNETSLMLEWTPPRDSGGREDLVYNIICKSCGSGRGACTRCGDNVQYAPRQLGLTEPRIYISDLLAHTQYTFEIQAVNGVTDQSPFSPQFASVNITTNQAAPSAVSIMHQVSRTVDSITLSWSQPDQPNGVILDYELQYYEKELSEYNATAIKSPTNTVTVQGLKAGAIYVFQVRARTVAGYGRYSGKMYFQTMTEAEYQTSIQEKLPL
In short: (§1)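 EphrinB2-Fc captured on AHC biosensors, then soluble His-tagged EphB ectodomain (25 nM for % inhibition runs) associated 80 s and dissociated 500 s in PBS, 0.05% Tween-20, 1% DMSO ± compound. Compounds tested at 0.1–3.2 μM with a 10 μM max standard; IC50 from AUC of full traces or at 75 s and 135 s.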

EphrinB2-EphB4 = target: T2, EphrinB2-EphB4 (Homo sapiens, UniProt P54760); experiment: Octet 80 sec association/500 sec dissociation, immobilized human EphrinB2-Fc binding to soluble human EphB4-His; details: for inhibition at 3.2 µM: 25 nM EphB4, 3.2 μM compound, A20-I as max control, 0* = less than 0, no inhibition; for EphB4 Inhibition Percent, Inhibition of Association ONLY: at 3.2 μM and 80 seconds; for inhibition: highest dose, typically 3.2 μM
T2 construct: soluble human EphB1-His, EphB2-His, and EphB4-His ectodomains; commercially available human EphrinB1-Fc (EB1), EphrinB2-Fc (EB2), and EphrinB3-Fc (EB3) ectodomain proteins; purchased
T2 sequence (P54760 16-539 limits assumed): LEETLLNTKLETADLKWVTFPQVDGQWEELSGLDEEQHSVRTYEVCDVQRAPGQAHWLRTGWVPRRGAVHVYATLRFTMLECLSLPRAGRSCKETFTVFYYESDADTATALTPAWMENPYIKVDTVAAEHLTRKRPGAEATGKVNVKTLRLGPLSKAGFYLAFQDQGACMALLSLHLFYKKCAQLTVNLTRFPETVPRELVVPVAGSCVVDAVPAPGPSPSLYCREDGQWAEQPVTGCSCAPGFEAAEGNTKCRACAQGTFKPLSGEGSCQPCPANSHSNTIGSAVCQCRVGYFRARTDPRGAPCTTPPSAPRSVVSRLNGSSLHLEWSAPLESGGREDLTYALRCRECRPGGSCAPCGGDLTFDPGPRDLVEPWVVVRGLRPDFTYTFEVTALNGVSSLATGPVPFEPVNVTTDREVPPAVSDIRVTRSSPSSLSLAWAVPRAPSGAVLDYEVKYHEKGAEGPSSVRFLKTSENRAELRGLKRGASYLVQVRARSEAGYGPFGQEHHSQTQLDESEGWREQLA
In short: as §1

[1] = EphB2, 25 nM EphB2, 3.2 μM compound, A20-I as max control, 0* = less than 0, no inhibition, read-out: % Inhibition: Association + Dissociation (160 sec)
[2] = EphB2, 25 nM EphB2, 3.2 μM compound, A20-I as max control, 0* = less than 0, no inhibition, read-out: % Inhibition: Association ONLY (80 sec)
[3] = EphB4, read-out: % Inhibition: Association + Dissociation (160 sec)
[4] = EphB4, read-out: % Inhibition: Association ONLY (80 sec)
[5] = EphB2, 25 nM EphB2, 3.2 μM compound, A20-I as max control, 0* = less than 0, no inhibition, listed as A19-NO2 (B)
[6] = immobilized human EphrinB2, 25 nM soluble human EphB2
[7] = immobilized human EphrinB2, 25 nM soluble human EphB4

In the case of Oc1c(Cl)cc(CN2CCOCC2)c2cccnc12 [Compound 3, 7-chloro-5-(morpholinomethyl)quinolin-8-ol], the “inhibition of EphrinB2-EphB interactions” value (EphrinB2-EphB2; 3.2 μM, EphB1, EphB2 and EphB4) is reported as “activity similar to A20-I max control”, the inhibition at 3.2 µM (EphrinB2-EphB2; [1]) is reported as 78.1% and the inhibition at 3.2 µM (EphrinB2-EphB2; [2]) is reported as 64.1%. The inhibition at 3.2 µM (EphrinB2-EphB4; [3]) was 35.5% and the inhibition at 3.2 µM (EphrinB2-EphB4; [4]) was 16.8%.

O=[N+]([O-])c1cc(CN2CCOCC2)c2cccnc2c1O [Compound 10, 4-((8-hydroxy-7-nitroquinolin-1-ium-5-yl)methyl)morpholin-4-ium chloride] was tested, and the “% Inhibition: Association + Dissociation (160 sec)” value (EphrinB2-EphB2; [5]) was 24.2%, the “% Inhibition: Association ONLY (80 sec)” value (EphrinB2-EphB2; [5]) was 11.6% and the “EphB2 Inhibition Percent, Inhibition of Association ONLY” value (EphrinB2-EphB2; at 3.2 μM and 80 seconds, immobilized human EphrinB2, 25 nM soluble human EphB2) was 9.2% and 11.6% and 16.5%. The “EphB2 Inhibition Percent, Inhibition of Association-Dissociation” value (EphrinB2-EphB2; [6]) was 24.5% and 24.2% and 21.0%, the “EphB4 Inhibition Percent, Inhibition of Association ONLY” value (EphrinB2-EphB4; [7]) was 0.1% and 0% and 4.1% and the “EphB4 Inhibition Percent, Inhibition of Association-Dissociation” value (EphrinB2-EphB4; at 3.2 μM and 580 seconds, immobilized human EphrinB2, 25 nM soluble human EphB4) was 9.0% and 0% and 5.9%.

In the case of Oc1ccc(CN2CCN(Cc3ccccc3)CC2)c2cccnc12 [Compound 41, 5-((4-benzylpiperazin-1-yl)methyl)quinolin-8-ol], the inhibition at 3.2 µM (EphrinB2-EphB2; [1]) is reported as 25.3%, the inhibition at 3.2 µM (EphrinB2-EphB2; [2]) is reported as 9.1% and the “selectivity among EphrinB2-EphB1/B2/B4” value (EphrinB2-EphB4; 3.2 μM, listed as QPBN) is reported as “more selective for EphB1”. It also gave an inhibition at 3.2 µM (EphrinB2-EphB4; [3]) of 2.6% and an inhibition at 3.2 µM (EphrinB2-EphB4; [4]) of 0%.

Oc1ccc(CN2CCN(c3ccc(Br)cn3)CC2)c2cccnc12 [Compound 33, 5-((4-(5-bromopyridin-2-yl)piperazin-1-yl)methyl)quinolin-8-ol] was tested, and the inhibition at 3.2 µM (EphrinB2-EphB2; [1]) was 81.6%, the inhibition at 3.2 µM (EphrinB2-EphB2; [2]) was 69.4% and the inhibition at 3.2 µM (EphrinB2-EphB4; [3]) was 36.9%. The inhibition at 3.2 µM (EphrinB2-EphB4; [4]) was 20.9%.

With Oc1c(Br)cc(CN2CCN(c3ccc(Br)cc3)CC2)c2cccnc12 [Compound 28, 7-bromo-5-((4-(4-bromophenyl)piperazin-1-yl)methyl)quinolin-8-ol] the IC50 (EphrinB2-EphB2; EphB2, Association (75″), read-out: Absolute IC50) was 320 nM, the IC50 (EphrinB2-EphB2; EphB2, Association (75″), read-out: Relative IC50) was 280 nM and the IC50 (EphrinB2-EphB2; EphB2, Association (AUC), read-out: Absolute IC50) was 360 nM. It also gave an IC50 (EphrinB2-EphB2; EphB2, Association (AUC), read-out: Relative IC50) of 280 nM, an IC50 (EphrinB2-EphB2; EphB2, Dissociation (135″), read-out: Absolute IC50) of 250 nM and an IC50 (EphrinB2-EphB2; EphB2, Dissociation (135″), read-out: Relative IC50) of 230 nM. It also gave an IC50 (EphrinB2-EphB2; EphB2, Full AUC, read-out: Absolute IC50) of 200 nM, an IC50 (EphrinB2-EphB2; EphB2, Full AUC, read-out: Relative IC50) of 180 nM and an inhibition (EphrinB2-EphB2; EphB2, read-out: Association (% Inhibited (AUC))) of 62.5%. For the same molecule, the inhibition (EphrinB2-EphB2; EphB2, read-out: Association + Dissociation (% Inhibited (AUC))) was 78.7%, the “% Inhibited (AUC), Association + Dissociation” value (EphrinB2-EphB4; EphB4, 0-160 sec, 50 nM, 10 μM compound, Table 4) was 29.3% and the “% Inhibited (AUC), Association” value (EphrinB2-EphB4; EphB4, 50 nM, 10 μM compound, Table 4) was 16.6%. For the same molecule, the IC50 (EphrinB2-EphB4; EphB4, Association (75″), read-out: Absolute IC50) was greater than 3200 nM, the IC50 (EphrinB2-EphB4; EphB4, Association (75″), read-out: Relative IC50) was 80 nM and the IC50 (EphrinB2-EphB4; EphB4, Association (AUC), read-out: Absolute IC50) was greater than 3200 nM. The IC50 (EphrinB2-EphB4; EphB4, Association (AUC), read-out: Relative IC50) was 120 nM, the IC50 (EphrinB2-EphB4; EphB4, Dissociation (135″), read-out: Absolute IC50) was 780 nM and the IC50 (EphrinB2-EphB4; EphB4, Dissociation (135″), read-out: Relative IC50) was 200 nM. For the same molecule, the IC50 (EphrinB2-EphB4; EphB4, Full AUC, read-out: Absolute IC50) was 320 nM, the IC50 (EphrinB2-EphB4; EphB4, Full AUC, read-out: Relative IC50) was 260 nM and the inhibition (EphrinB2-EphB4; EphB4, read-out: Association (% Inhibited (AUC))) was 12.5%. It also gave an inhibition (EphrinB2-EphB4; EphB4, read-out: Association + Dissociation (% Inhibited (AUC))) of 36.4%.

Oc1ccc(CN2CCN(Cc3ccc(C(F)(F)F)cc3)CC2)c2cccnc12 [Compound 48, 5-((4-(4-(trifluoromethyl)benzyl)piperazin-1-yl)methyl)quinolin-8-ol] showed an inhibition at 3.2 µM (EphrinB2-EphB2; [1]) of 46.2%, an inhibition at 3.2 µM (EphrinB2-EphB2; [2]) of 21.3% and an inhibition at 3.2 µM (EphrinB2-EphB4; [3]) of 0%. For the same molecule, the inhibition at 3.2 µM (EphrinB2-EphB4; [4]) was 0%.

For O=[N+]([O-])c1cc(CN2CCOCC2)c2cccnc2c1O [Compound 9, 5-(morpholinomethyl)-7-nitroquinolin-8-ol], the “% Inhibition: Association + Dissociation (160 sec)” value (EphrinB2-EphB2; EphB2, 25 nM EphB2, 3.2 μM compound, A20-I as max control, 0* = less than 0, no inhibition, listed as A19-NO2 (A)) was 58.0% and 38.9%, the “inhibition of EphB2-EphrinB2 binding” value (EphrinB2-EphB2; association step, general) was 40% and the “EphB2 Inhibition Percent, Inhibition of Association-Dissociation” value (EphrinB2-EphB2; [6]) was 58.0% (2×) and 38.9%. The “less % inhibition activity toward EphrinB2-EphB4” value (EphrinB2-EphB4; 3.2 μM) was “approximately 20 fold”, the “selectivity among EphrinB2-EphB1/B2/B4” value (EphrinB2-EphB4; 3.2 μM, listed as A19-NO2) was “selectively inhibit EphrinB2-EphB2 and EphrinB2-EphB1 interactions, while sparing most of the EphrinB2-EphB4 interaction; also recorded: less action towards EphB4 but high specificity for EphB1 and EphB2” and the “inhibition of EphB4-EphrinB2 binding” value (EphrinB2-EphB4; association step, general) was 0%. The “EphB4 Inhibition Percent, Inhibition of Association ONLY” value (EphrinB2-EphB4; [7]) was 0.6% and 0% and 8.2%.
